Measured values: patent US20260015387A1, “MITOCHONDRIAL ANTIOXIDANT PEPTIDES” (priority 2022, published 2026)
Like-named read-outs stand apart in the source and are kept apart here. Square brackets hold non-standard residues; d marks the D form. Dmt = Cc1cc(O)cc(C)c1C[C@H](N)C(=O)O

What was measured:
cardiolipin = experiment: Cardiolipin binding assay (cytochrome c reduction by ascorbate); conditions: compared to SS31 (FIG. 18)
From the text: Cardiolipin binds to cytochrome c, preventing it from being reduced by ascorbate. When the peptide binds cardiolipin, cytochrome c is free to be reduced by ascorbate.

[1] = DPPH antioxidant activity (radical quenching); conditions: compared to the SS-31 peptide (FIG. 3)
Method: Experiments were performed to determine DPPH antioxidant activity. Radical concentration of DPPH was determined after reacting with varying concentrations of peptide. DPPH is an organic radical with a peak ABS at 525 nm.

16HBE41o-cells = assay type: cell-based; conditions: for Protection against HOCl-mediated cell death: cells treated with 200 μM HOCl, MTT assay
Method: 16HBE41o-cells were treated with 200 μM of HOCl for 60 min in PBS with or without increasing concentrations of peptides. Cells were washed and then placed back in media and cell viability was assess at 24 hours using the MTT assay. % Protection was determined by normalizing data to cell viability with and without oxidant.
An HOCl protection assay using 16HBE41o-cells was performed. This assay measured protection against cell death using HOCl as the oxidant. RH8=2TH peptide and RH9=His peptide. […] For this assay, 16HBE41o-cells were treated with 200 μM of HOCl for 60 minutes in PBS with or without increasing concentrations of test compounds. Cells were washed and then placed back in media and cell viability was assess at 24 hours using the MTT assay. % Protection was determined by normalizing data to cell viability with and without oxidant. Data curves were generated using Prism 8 software (GraphPad) for 50% effective concentration (EC50) determinations and their respective 95% confidence intervals.

[2] = In vitro antioxidant capacity studies; conditions: in vitro data
From the text: Various in vitro antioxidant capacity studies and some cell-based protection assays have been performed. […] This is especially true for HOCl-mediated injury as illustrated in FIG. 9.

[3] = Hydroxyl radical scavenging measured by EPR; conditions: DMPO trap, compared to the SS-31 peptide (FIG. 7)
Method: Hydroxyl radical scavenging activity of peptides measured by electron paramagnetic resonance (EPR). Hydroxyl radical was generated by a reaction of 0.8 mM FeSO4, with 0.8-mM H2O2, pH 7.0 (250 μL). The hydroxyl radicals were trapped with 5,5-dimethyl-1-pyrroline-N-oxide (DMPO) prior to obtaining spectra.

[4] = system: Human HMESO malignant mesothelioma cells; experiment: ROS glow assay (cellular H2O2 levels); assay type: cell-based; conditions: 250 mM peptide, 50 μM menadione, 4 hours; compared to the SS-31 peptide (FIG. 8)
Method: An ROS glow assay was also performed. The assay measures the levels of H2O2 after injury to the cell. Human HMESO malignant mesothelioma cells were incubated with […] of WT, 2-TH or His compound with the addition 50 μM menadione and the H2O2 substrate for 4 hours (in duplicate). The reaction was quenched with addition of the H2O2 detection substrate. Luminescence levels were measured in a plate reader after 30 minutes of incubation.

[5] = after global ischemia; cited from earlier work
[6] = system: cellular reactive oxygen species; conditions: ROS caused by 1-butyl hydroperoxide; cited from earlier work
[7] = ABTS radical quenching assay; conditions: FIGS. 4-6
Method: ABTS assays were also performed. ABTS is a radical cation that is blue in color and absorbs light at 734 nm. 7 mM AzBTS was mixed in water with 2.45 mM potassium persulfate and left 16 hrs in the dark at rt to oxidize. […] The ABTS solution was diluted to an absorbance of ˜0.7 at 734 nm. Samples were assayed with ABTS: 990 μL ABTS solution+10 μL sample. Stocks of peptides were made with concentrations in the range of 0.1 mM to 3.2 mM. This assay may be a better choice than DPPH if there is less steric hindrance. FIGS. 4-6 show the results of these experiments.

| Compound | Binding to cardiolipin (CL) (cardiolipin) | Scavenging of the DPPH radical [1] | EC50 (16HBE41o-cells; cells treated with 200 μM HOCl for 60 min in PBS, viability at 24 hours, MTT, read-out: EC50 of protection against HOCl-mediated cell death) | Protection against HOCl-mediated cell death (16HBE41o-cells) | Antioxidant activity (overall comparison) [2] | Scavenging of the hydroxyl radical [3] | Cellular levels of H2O2 [4] | Protection against HOCl-mediated cell death (16HBE41o-cells; listed as WT peptide) | Prevention of reperfusion-associated myocardial stunning [5] | Scavenging of cellular reactive oxygen species [6] | Quenching of the ABTS radical [7] |
| --- | --- | --- | --- | --- | --- | --- | --- | --- | --- | --- | --- |
| N=C(N)NCCC[C@@H](N)C(=O)N[C@@H](Cc1c[nH]c(=S)[nH]1)C(=O)N[C@@H](CCCCN)C(=O)N[C@@H](Cc1ccccc1)C(N)=O [RH8] | binds to CL equally well as SS31 | better at scavenging the DPPH radical | 50 µM | protects strongly | significantly better antioxidant than the SS-31 peptide | better at scavenging | significantly lower compared to the SS-31 peptide | – | – | – | – |
| H-[dR][Dmt]KF-NH2 [SS-31] | – | – | – | did not protect against HOCl-mediated injury at all | – | – | – | did not show any protection | prevented reperfusion-associated myocardial stunning | scavenged cellular reactive oxygen species | quenches the ABTS radical better |
